According to ChEMBL document CHEMBL5465560, “Selectivity Literature for EUbOPEN Chemogenomic Library” (2024):

Columns and labels:
[1] = biological target: Macrophage colony-stimulating factor 1 receptor (Homo sapiens) (UniProt P07333); test: Selectivity interaction (KinomeScan (DiscoverX)) EUB0000229b CSF1R; conditions: at 10 µM
[2] = biological target: Serine/threonine-protein kinase Nek4 (Homo sapiens) (UniProt P51957); test: Selectivity interaction (KinomeScan (DiscoverX)) EUB0001079a NEK4; conditions: at 1 µM
Chain of Serine/threonine-protein kinase Nek4 (Homo sapiens) (P51957 whole entry, looked up): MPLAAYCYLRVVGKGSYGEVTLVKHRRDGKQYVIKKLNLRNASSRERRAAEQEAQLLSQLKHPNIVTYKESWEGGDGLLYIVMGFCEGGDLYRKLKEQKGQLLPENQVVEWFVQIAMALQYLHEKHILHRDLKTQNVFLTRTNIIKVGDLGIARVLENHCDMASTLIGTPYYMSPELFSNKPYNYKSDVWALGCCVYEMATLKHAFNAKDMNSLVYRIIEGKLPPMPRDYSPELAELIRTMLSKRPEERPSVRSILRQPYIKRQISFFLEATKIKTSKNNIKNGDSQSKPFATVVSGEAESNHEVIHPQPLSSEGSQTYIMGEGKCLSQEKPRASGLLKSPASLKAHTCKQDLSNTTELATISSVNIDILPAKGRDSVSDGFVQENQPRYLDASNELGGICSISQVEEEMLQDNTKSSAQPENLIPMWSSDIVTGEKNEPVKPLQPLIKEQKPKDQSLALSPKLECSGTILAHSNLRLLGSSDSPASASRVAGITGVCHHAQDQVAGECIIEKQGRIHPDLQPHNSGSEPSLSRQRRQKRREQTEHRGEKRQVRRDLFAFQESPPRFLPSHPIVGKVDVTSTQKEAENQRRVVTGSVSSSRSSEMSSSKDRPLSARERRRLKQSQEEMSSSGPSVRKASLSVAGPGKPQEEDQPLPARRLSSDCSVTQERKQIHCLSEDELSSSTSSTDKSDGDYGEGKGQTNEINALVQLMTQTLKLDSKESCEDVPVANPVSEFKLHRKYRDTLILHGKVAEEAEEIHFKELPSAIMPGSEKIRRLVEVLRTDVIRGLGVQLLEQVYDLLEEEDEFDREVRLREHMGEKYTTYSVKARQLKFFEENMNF

[3] = biological target: Non-receptor tyrosine-protein kinase TYK2 (Homo sapiens, UniProt P29597); test: Selectivity interaction (KinomeScan (DiscoverX)) EUB0001079a TYK2; conditions: at 1 µM
Chain of Non-receptor tyrosine-protein kinase TYK2 (P29597 whole entry): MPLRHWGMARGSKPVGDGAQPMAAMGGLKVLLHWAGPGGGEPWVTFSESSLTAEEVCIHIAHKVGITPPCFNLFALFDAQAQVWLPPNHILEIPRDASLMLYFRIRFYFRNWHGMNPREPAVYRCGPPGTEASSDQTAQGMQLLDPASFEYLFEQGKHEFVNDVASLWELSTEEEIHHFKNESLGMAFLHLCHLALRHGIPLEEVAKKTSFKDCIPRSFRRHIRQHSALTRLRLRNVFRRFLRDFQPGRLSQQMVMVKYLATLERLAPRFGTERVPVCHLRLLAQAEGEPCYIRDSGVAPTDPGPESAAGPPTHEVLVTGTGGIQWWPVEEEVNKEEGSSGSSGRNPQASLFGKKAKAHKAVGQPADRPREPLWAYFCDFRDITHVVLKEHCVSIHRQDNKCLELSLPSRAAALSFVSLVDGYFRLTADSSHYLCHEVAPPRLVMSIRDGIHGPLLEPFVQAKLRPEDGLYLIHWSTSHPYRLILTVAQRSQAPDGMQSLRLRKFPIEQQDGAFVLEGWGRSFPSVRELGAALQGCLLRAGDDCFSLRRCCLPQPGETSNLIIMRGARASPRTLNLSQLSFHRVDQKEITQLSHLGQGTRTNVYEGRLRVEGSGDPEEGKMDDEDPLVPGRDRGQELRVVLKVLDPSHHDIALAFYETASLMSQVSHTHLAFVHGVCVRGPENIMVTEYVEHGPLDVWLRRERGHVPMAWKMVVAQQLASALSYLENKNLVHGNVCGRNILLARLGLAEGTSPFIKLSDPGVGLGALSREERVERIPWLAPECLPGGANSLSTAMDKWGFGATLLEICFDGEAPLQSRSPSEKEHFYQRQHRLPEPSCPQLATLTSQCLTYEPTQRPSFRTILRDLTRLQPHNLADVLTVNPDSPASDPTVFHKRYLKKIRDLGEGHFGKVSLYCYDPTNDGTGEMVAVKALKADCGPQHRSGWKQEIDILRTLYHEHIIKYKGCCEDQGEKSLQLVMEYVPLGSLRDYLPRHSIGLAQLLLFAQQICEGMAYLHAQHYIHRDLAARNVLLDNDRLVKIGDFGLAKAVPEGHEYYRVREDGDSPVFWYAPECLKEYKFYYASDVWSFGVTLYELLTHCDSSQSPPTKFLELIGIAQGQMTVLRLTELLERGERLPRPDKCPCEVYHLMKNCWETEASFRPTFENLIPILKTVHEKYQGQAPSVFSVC

Aurora kinase A = Aurora kinase A (Homo sapiens, UniProt O14965); test: Selectivity interaction (Kinase panel (33PanQinase(R) Activity Assay)) EUB0000877a STK6
[4] = biological target: Activin receptor type-2B (Homo sapiens) (UniProt Q13705); conditions: at 10 µM
Chain of Activin receptor type-2B (Homo sapiens) (Q13705 whole entry): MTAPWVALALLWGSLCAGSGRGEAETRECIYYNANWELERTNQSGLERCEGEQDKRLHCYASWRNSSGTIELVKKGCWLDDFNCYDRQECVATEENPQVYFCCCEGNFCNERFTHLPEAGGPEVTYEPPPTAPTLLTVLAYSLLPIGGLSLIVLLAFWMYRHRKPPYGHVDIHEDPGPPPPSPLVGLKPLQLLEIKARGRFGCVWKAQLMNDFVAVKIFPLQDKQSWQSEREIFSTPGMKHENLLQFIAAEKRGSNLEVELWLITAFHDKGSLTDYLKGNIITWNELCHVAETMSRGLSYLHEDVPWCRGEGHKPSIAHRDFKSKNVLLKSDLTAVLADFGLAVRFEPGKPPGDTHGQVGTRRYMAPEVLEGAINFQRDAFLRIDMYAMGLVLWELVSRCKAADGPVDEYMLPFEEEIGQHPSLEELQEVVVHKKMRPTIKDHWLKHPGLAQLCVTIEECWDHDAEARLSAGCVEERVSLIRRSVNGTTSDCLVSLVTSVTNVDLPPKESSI

[5] = biological target: Dual specificity mitogen-activated protein kinase kinase 1 (Homo sapiens, UniProt Q02750); conditions: at 10 µM
[6] = biological target: Receptor-interacting serine/threonine-protein kinase 2 (Homo sapiens, UniProt O43353); conditions: at 10 µM
[7] = biological target: Mitogen-activated protein kinase kinase kinase kinase 4 (Homo sapiens, UniProt O95819); test: Selectivity interaction (Kinase panel (Z-LYTE Assay)) EUB0001632a MAP4K4; conditions: at 10 µM
[8] = biological target: Phosphatidylinositol 4-phosphate 3-kinase C2 domain-containing subunit beta (Homo sapiens) (UniProt O00750); test: Selectivity interaction (KinomeScan (DiscoverX)) EUB0000607a PIK3C2B; conditions: at 10 µM
[9] = biological target: Protein-tyrosine kinase 6 (Homo sapiens, UniProt Q13882); test: Selectivity interaction (SelectScreen profiling (Invitrogen)) EUB0000607a PTK6; conditions: at 2 µM
[10] = biological target: Tyrosine-protein kinase Fes/Fps (Homo sapiens) (UniProt P07332); test: Selectivity interaction (KinomeScan (DiscoverX)) EUB0000595a FES; conditions: at 10 µM
[11] = biological target: T1, Atypical kinase COQ8B, mitochondrial (Homo sapiens) (UniProt Q96D53); test: Selectivity interaction (KinomeScan (DiscoverX)) EUB0000618a ADCK4; conditions: at 10 µM
T1 sequence (whole entry): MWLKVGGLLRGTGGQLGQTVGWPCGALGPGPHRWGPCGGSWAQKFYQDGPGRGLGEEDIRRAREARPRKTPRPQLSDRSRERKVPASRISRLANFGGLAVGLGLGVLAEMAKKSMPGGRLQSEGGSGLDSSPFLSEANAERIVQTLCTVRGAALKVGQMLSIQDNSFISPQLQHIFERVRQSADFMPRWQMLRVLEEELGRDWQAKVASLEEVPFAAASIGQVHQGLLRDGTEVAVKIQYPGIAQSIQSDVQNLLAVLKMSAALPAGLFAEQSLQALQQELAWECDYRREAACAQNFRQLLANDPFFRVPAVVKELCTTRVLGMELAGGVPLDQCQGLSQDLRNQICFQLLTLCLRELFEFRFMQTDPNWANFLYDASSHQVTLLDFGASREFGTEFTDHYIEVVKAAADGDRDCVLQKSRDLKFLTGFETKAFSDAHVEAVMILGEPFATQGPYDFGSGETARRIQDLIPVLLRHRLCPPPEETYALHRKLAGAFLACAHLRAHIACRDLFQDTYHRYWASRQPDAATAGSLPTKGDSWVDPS

[12] = biological target: Protein kinase C eta type (Homo sapiens) (UniProt P24723); test: Selectivity interaction (Ambit KINOMEscan and KiNATiv profiling in Jurkat cells) EUB0000090b PRKCH; type: cell-based; conditions: at 1 µM
[13] = biological target: T2, Cyclin-dependent kinase 11A (Homo sapiens) (UniProt Q9UQ88); test: Selectivity interaction (KinomeScan (DiscoverX)) EUB0001619a CDK11A; conditions: at 1 µM
T2 sequence (whole entry): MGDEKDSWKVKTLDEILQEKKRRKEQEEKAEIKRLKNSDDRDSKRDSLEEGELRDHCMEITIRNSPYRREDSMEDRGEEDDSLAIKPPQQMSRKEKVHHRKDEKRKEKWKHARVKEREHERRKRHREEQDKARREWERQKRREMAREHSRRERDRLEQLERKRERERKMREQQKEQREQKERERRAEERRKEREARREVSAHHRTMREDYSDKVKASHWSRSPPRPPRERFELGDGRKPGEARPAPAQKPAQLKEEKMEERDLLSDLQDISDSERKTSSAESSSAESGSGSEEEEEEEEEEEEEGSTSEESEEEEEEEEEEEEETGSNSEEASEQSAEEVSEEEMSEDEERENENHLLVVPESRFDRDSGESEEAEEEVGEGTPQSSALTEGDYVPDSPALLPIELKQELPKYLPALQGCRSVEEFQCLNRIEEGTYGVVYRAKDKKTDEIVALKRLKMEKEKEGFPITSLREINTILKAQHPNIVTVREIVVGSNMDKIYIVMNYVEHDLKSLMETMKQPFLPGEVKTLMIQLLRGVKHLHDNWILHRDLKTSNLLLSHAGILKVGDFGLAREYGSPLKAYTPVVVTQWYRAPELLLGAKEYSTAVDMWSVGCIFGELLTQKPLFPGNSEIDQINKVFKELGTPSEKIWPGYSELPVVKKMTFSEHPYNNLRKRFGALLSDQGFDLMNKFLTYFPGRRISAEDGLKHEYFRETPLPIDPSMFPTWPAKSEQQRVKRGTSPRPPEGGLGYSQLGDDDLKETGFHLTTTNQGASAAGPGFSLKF

[14] = biological target: Serine/threonine-protein kinase WNK2 (Homo sapiens) (UniProt Q9Y3S1); test: Selectivity interaction (ActivX KiNativ screen (ex vivo kinase selectivity in human PBMCs)) EUB0001619a WNK2; type: cell-based; conditions: PBMC, at 1 µM
Chain of Serine/threonine-protein kinase WNK2 (Homo sapiens) (Q9Y3S1 whole entry): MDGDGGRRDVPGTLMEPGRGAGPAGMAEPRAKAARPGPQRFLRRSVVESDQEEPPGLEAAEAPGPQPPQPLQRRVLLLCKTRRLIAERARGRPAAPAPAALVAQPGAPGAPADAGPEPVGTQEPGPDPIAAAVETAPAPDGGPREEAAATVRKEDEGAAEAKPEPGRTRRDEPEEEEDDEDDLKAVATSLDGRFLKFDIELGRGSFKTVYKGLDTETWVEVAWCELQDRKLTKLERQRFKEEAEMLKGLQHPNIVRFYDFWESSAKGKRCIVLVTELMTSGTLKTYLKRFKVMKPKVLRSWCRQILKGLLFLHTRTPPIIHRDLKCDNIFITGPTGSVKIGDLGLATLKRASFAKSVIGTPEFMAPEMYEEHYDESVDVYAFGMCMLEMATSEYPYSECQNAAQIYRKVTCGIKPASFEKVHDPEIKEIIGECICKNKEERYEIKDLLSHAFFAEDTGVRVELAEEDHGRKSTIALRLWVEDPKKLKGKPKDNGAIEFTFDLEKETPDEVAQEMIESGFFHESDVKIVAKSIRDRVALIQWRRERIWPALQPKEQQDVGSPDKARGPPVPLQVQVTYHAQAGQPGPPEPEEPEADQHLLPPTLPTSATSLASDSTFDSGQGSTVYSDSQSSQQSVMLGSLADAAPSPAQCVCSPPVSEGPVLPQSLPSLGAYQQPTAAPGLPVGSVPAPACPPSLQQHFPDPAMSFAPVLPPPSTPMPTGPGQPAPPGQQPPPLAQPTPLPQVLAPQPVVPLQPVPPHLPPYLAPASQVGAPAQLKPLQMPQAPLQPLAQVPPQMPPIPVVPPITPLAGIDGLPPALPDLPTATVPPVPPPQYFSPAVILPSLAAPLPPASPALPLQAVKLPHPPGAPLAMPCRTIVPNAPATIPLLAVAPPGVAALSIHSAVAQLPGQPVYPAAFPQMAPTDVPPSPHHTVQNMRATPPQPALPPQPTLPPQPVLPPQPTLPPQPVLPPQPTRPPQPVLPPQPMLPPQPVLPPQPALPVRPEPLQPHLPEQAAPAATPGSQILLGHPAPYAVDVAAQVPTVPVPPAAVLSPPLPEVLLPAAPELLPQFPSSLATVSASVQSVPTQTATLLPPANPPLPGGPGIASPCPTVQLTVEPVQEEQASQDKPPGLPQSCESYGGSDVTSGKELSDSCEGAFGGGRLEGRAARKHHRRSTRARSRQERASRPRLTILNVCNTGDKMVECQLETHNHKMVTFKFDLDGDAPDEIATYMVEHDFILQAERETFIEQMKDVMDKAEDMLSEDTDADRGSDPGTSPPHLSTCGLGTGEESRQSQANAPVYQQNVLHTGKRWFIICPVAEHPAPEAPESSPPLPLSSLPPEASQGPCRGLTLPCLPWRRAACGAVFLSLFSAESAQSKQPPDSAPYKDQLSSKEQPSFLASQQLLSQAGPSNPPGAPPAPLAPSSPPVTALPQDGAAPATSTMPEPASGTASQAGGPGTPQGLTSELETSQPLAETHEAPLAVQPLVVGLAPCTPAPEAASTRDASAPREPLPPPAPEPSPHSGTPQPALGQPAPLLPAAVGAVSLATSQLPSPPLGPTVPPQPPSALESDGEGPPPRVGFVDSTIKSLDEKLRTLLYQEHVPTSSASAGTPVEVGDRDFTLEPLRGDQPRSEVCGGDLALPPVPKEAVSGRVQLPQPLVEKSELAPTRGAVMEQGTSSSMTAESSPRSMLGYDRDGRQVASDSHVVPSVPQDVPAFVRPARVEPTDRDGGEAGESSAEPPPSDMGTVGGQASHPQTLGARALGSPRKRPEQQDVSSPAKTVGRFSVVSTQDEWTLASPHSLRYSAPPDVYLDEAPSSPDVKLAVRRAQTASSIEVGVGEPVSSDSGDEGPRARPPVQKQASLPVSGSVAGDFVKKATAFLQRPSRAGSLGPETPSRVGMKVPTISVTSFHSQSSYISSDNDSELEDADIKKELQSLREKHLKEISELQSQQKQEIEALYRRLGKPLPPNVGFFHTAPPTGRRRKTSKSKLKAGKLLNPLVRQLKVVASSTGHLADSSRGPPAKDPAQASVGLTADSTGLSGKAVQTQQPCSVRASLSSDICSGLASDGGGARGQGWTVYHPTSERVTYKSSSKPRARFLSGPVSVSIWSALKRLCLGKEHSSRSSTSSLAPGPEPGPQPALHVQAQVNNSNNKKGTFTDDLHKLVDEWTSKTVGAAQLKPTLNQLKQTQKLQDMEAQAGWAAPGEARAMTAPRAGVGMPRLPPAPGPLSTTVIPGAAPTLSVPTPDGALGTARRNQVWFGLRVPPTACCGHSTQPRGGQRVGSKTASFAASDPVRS

[15] = biological target: Serine/threonine-protein kinase 32C (Homo sapiens) (UniProt Q86UX6); test: Selectivity interaction (KinomeScan (DiscoverX)) EUB0001619a STK32C; conditions: at 1 µM

## COc1cc(N(C)c2ccnc3ccc(C(F)(F)F)cc23)cc(OC)c1OC
[1]
  % binding: 91%

## Nc1cnc(N2CCc3cc(S(=O)(=O)Nc4c(F)cc(Cl)cc4F)cc(N4CCCC4=O)c32)nc1 [TP-020n]
[2]
  % of control: 97%
[3]
  % of control: 100%

## CCC(=O)N1CC[C@H](Nc2ncnc3c2CN(c2cnc(OC)c(C(F)(F)F)c2)CC3)C1 [LENIOLISIB]
Aurora kinase A
  IC50: > 10 µM

## Cc1cc([C@@H](C)Nc2ccccc2C(=O)O)c2nc(N3CCOCC3)cc(=O)n2c1 [AZD-6482]
[4]
  % of control: 100%
[5]
  % of control: 89%
[6]
  % of control: 94%

## Cn1cc(-n2cnc3c(NCc4nc5cc(Cl)c(Cl)cc5[nH]4)nc(N4CCOCC4)nc32)cn1
[7]
  % of control: 4.98%

## CNC(=O)Nc1ccc(-c2nc(N3CC4CCC(C3)O4)c3cnn(C4CCC5(CC4)OCCO5)c3n2)cc1
[8]
  % of control: 25%
[9]
  % of inhibition: 8%

## COCC(=O)NC/C=C/c1ccc2ncnc(Nc3ccc(Oc4ccc(C)nc4)c(C)c3)c2c1 [CP-724714]
[10]
  % of control: 100%

## O[C@H]1CC[C@H](Nc2ncc3nc(Nc4c(F)cc(F)cc4F)n([C@H]4CCOC4)c3n2)CC1
[11]
  % of control: 87%

## CN(C)C/C=C/C(=O)Nc1ccc(C(=O)N2CCCC(Nc3ncc(Cl)c(-c4c[nH]c5ccccc45)n3)C2)cc1 (stereo unspecified)
[12]
  % of control: 91%

## N#Cc1cccc(-c2c[nH]c3ncnc(N4CCOCC4)c23)c1
[13]
  % of control: 100%
[14]
  % of inhibition: -6%
[15]
  % of control: 100%
